{
  "source": "patent US20070049593A1",
  "about": "(priority 2004, published 2007)",
  "note": "Where a name gives a salt, the structure may show the parent alone.",
  "data": [
    {"molecular_target": "T1, HCV polymerase (Hepatitis C virus genotype 1b, UniProt P26663)", "T1 construct": "a region encoding NS5B (J Virol 1991 March, 65(3), 1105-13, 544 amino acids after deletion of 47 amino acids on the C-terminal); 6xHis (C); made in house; host or cells: Escherichia coli", "T1 sequence (P26663 2420-2963)": "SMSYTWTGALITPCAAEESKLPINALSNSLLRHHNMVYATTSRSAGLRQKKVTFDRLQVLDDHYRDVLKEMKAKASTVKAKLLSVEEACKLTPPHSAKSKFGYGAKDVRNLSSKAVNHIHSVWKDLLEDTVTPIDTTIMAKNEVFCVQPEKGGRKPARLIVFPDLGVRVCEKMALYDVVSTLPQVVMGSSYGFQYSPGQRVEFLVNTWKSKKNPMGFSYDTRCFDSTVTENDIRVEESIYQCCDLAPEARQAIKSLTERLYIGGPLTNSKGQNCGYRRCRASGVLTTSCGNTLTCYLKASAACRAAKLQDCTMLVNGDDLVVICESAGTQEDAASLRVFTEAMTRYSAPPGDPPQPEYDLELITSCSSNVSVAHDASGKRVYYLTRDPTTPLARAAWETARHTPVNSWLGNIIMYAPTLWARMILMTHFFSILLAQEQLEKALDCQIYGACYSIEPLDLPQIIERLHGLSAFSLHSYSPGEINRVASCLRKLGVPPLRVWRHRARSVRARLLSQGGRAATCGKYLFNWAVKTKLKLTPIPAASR", "assay": "biochemical", "parameters": "species or system HCV BK strain", "conditions": "not given", "outline": "(§1)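 Recombinant HCV BK-strain NS5B (C-terminal 47 aa deleted, His6-tagged, E. coli), 0.5 μg/ml, run with 5 μg/ml in vitro-transcribed RNA template (polyU/3′X), ATP/GTP/CTP 50 μM, UTP 2 μM plus [3H]UTP, pH 7.5, 25° C, 90 min. TCA-precipitated RNA counted by scintillation; IC50 from activity with vs without compound.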", "units": {"IC50": "nM"}, "values": [
      {"compound": "Cc1ccc2c(c1)N(CCN1CCCC(C(C)C)C1)CCn1c-2c(C2CCCCC2)c2ccc(C(=O)O)cc21", "note": "(centres unmarked) [Example 1-365, 13-cyclohexyl-5-[2-(3-isopropylpiperidin-1-yl)ethyl]-3-methyl-6,7-dihydro-5H-benzo[5,6][1,4]diazepino[7,1-a]indole-10-carboxylic acid dihydrochloride]", "IC50": "< 100"},
      {"compound": "CCc1ccc2c(c1)N(CCN1CCCC(COC)C1)CCn1c-2c(C2CCCCC2)c2ccc(C(=O)O)cc21", "note": "(centres unmarked) [Example 1-366, 13-cyclohexyl-3-ethyl-5-[2-(3-methoxymethylpiperidin-1-yl)ethyl]-6,7-dihydro-5H-benzo[5,6][1,4]diazepino[7,1-a]indole-10-carboxylic acid dihydrochloride]", "IC50": "< 100"},
      {"compound": "COCC1CCCN(CCN2CCn3c(c(C4CCCCC4)c4ccc(C(=O)O)cc43)-c3ccc(C(C)C)cc32)C1", "note": "(centres unmarked) [Example 1-367, 13-cyclohexyl-3-isopropyl-5-[2-(3-methoxymethylpiperidin-1-yl)ethyl]-6,7-dihydro-5H-benzo[5,6][1,4]diazepino[7,1-a]indole-10-carboxylic acid dihydrochloride]", "IC50": "< 100"},
      {"compound": "CC1CCCN1CCCN1CCn2c(c(C3CCCCC3)c3ccc(C(=O)O)cc32)-c2ccc(Cl)cc21", "note": "(centres unmarked) [Example 1-368, 3-chloro-13-cyclohexyl-5-[3-(2-methylpyrrolidin-1-yl)propyl]-6,7-dihydro-5H-benzo[5,6][1,4]diazepino[7,1-a]indole-10-carboxylic acid]", "IC50": "< 100"},
      {"compound": "CCc1ccc2c(c1)N(CCC1CCCN(C(C)C)C1)CCn1c-2c(C2CCCCC2)c2ccc(C(=O)O)cc21", "note": "(centres unmarked) [Example 1-369, 13-cyclohexyl-3-ethyl-5-[2-(1-isopropylpiperidin-3-yl)ethyl]-6,7-dihydro-5H-benzo[5,6][1,4]diazepino[7,1-a]indole-10-carboxylic acid]", "IC50": "< 100"},
      {"compound": "CCOc1ccc2c(c1)N(CCN1CCCC(COC)C1)CCn1c-2c(C2CCCCC2)c2ccc(C(=O)O)cc21", "note": "(centres unmarked) [Example 1-370, 13-cyclohexyl-3-ethoxy-5-[2-(3-methoxymethylpiperidin-1-yl)ethyl]-6,7-dihydro-5H-benzo[5,6][1,4]diazepino[7,1-a]indole-10-carboxylic acid]", "IC50": "< 100"},
      {"compound": "CC(C)N1CCCC(OCCN2CCn3c(c(C4CCCCC4)c4ccc(C(=O)O)cc43)-c3ccc(Cl)cc32)C1", "note": "(centres unmarked) [Example 1-371, 3-chloro-13-cyclohexyl-5-[2-(1-isopropylpiperidin-3-yloxy)ethyl]-6,7-dihydro-5H-benzo[5,6][1,4]diazepino[7,1-a]indole-10-carboxylic acid]", "IC50": "< 100"},
      {"compound": "CCC1CCCN(CCCN2CCn3c(c(C4CCCCC4)c4ccc(C(=O)O)cc43)-c3ccc(Cl)cc32)C1", "note": "(centres unmarked) [Example 1-372, 3-chloro-13-cyclohexyl-5-[3-(3-ethylpiperidin-1-yl)propyl]-6,7-dihydro-5H-benzo[5,6][1,4]diazepino[7,1-a]indole-10-carboxylic acid dihydrochloride]", "IC50": "< 100"},
      {"compound": "Cc1cc(COc2ccc3c(c2)N(CCN(C)C)CCn2c-3c(C3CCCCC3)c3ccc(C(=O)O)cc32)no1", "note": "[Example 1-374, 13-cyclohexyl-5-(2-dimethylaminoethyl)-3-(5-methylisoxazol-3-ylmethoxy)-6,7-dihydro-5H-benzo[5,6][1,4]diazepino[7,1-a]indole-10-carboxylic acid dihydrochloride]", "IC50": "< 100"},
      {"compound": "CC(C)COc1ccc2c(c1)N(CCN1CCCC(C)C1)CCn1c-2c(C2CCCCC2)c2ccc(C(=O)O)cc21", "note": "(centres unmarked) [Example 1-375, 13-cyclohexyl-3-isobutoxy-5-[2-(3-methylpiperidin-1-yl)ethyl]-6,7-dihydro-5H-benzo[5,6][1,4]diazepino[7,1-a]indole-10-carboxylic acid dihydrochloride]", "IC50": "< 100"},
      {"compound": "CCC1CCCN(CCN2CCn3c(c(C4CCCCC4)c4ccc(C(=O)O)cc43)-c3ccc(OCC(C)C)cc32)C1", "note": "(centres unmarked) [Example 1-376, 13-cyclohexyl-5-[2-(3-ethylpiperidin-1-yl)ethyl]-3-isobutoxy-6,7-dihydro-5H-benzo[5,6][1,4]diazepino[7,1-a]indole-10-carboxylic acid dihydrochloride]", "IC50": "< 100"},
      {"compound": "COCC1CCCN(CCN2CCn3c(c(C4CCCCC4)c4ccc(C(=O)O)cc43)-c3ccc(OCC(C)C)cc32)C1", "note": "(centres unmarked) [Example 1-377, 13-cyclohexyl-3-isobutoxy-5-[2-(3-methoxymethylpiperidin-1-yl)ethyl]-6,7-dihydro-5H-benzo[5,6][1,4]diazepino[7,1-a]indole-10-carboxylic acid dihydrochloride]", "IC50": "< 100"},
      {"compound": "CCN(CC)CCCN1CCn2c(c(C3CCCCC3)c3ccc(C(=O)O)cc32)-c2ccc(C)cc21", "note": "[Example 1-378, 13-cyclohexyl-5-(3-diethylaminopropyl)-3-methyl-6,7-dihydro-5H-benzo[5,6][1,4]diazepino[7,1-a]indole-10-carboxylic acid dihydrochloride]", "IC50": "< 100"},
      {"compound": "O=C(O)c1ccc2c(C3CCCCC3)c3n(c2c1)CCN(CCC1CCCN(C2CCCCC2)C1)c1cc(Cl)ccc1-3", "note": "(centres unmarked) [Example 1-379, 3-chloro-13-cyclohexyl-5-[2-(1-cyclohexylpiperidin-3-yl)ethyl]-6,7-dihydro-5H-benzo[5,6][1,4]diazepino[7,1-a]indole-10-carboxylic acid dihydrochloride]", "IC50": "< 100"},
      {"compound": "Cc1ccc2c(c1)N(CCC1CCCN(C3CCCC3)C1)CCn1c-2c(C2CCCCC2)c2ccc(C(=O)O)cc21", "note": "(centres unmarked) [Example 1-380, 13-cyclohexyl-5-[2-(1-cyclopentylpiperidin-3-yl)ethyl]-3-methyl-6,7-dihydro-5H-benzo[5,6][1,4]diazepino[7,1-a]indole-10-carboxylic acid dihydrochloride]", "IC50": "< 100"},
      {"compound": "CC(C)c1ccc2c(c1)N(CCC1CCCN(C(C)C)C1)CCn1c-2c(C2CCCCC2)c2ccc(C(=O)O)cc21", "note": "(centres unmarked) [Example 1-381, 13-cyclohexyl-3-isopropyl-5-[2-(1-isopropylpiperidin-3-yl)ethyl]-6,7-dihydro-5H-benzo[5,6][1,4]diazepino[7,1-a]indole-10-carboxylic acid dihydrochloride]", "IC50": "< 100"},
      {"compound": "CCC1CCN(CCN2CCn3c(c(C4CCCCC4)c4ccc(C(=O)O)cc43)-c3ccccc32)C1", "note": "(centres unmarked) [Example 1-382, 13-cyclohexyl-5-[2-(3-ethylpyrrolidin-1-yl)ethyl]-6,7-dihydro-5H-benzo[5,6][1,4]diazepino[7,1-a]indole-10-carboxylic acid dihydrochloride]", "IC50": "< 100"},
      {"compound": "CCC1CCN(CCN2CCn3c(c(C4CCCCC4)c4ccc(C(=O)O)cc43)-c3ccc(Cl)cc32)C1", "note": "(centres unmarked) [Example 1-383, 3-chloro-13-cyclohexyl-5-[2-(3-ethylpyrrolidin-1-yl)ethyl]-6,7-dihydro-5H-benzo[5,6][1,4]diazepino[7,1-a]indole-10-carboxylic acid dihydrochloride]", "IC50": "< 100"},
      {"compound": "CCC1CCN(CCN2CCn3c(c(C4CCCCC4)c4ccc(C(=O)O)cc43)-c3ccc(C)cc32)C1", "note": "(centres unmarked) [Example 1-384, 13-cyclohexyl-5-[2-(3-ethylpyrrolidin-1-yl)ethyl]-3-methyl-6,7-dihydro-5H-benzo[5,6][1,4]diazepino[7,1-a]indole-10-carboxylic acid dihydrochloride]", "IC50": "< 100"},
      {"compound": "CC(C)COc1ccc2c(c1)N(CCC1CCCN(C(C)C)C1)CCn1c-2c(C2CCCCC2)c2ccc(C(=O)O)cc21", "note": "(centres unmarked) [Example 1-385, 13-cyclohexyl-3-isobutoxy-5-[2-(1-isopropylpiperidin-3-yl)ethyl]-6,7-dihydro-5H-benzo[5,6][1,4]diazepino[7,1-a]indole-10-carboxylic acid dihydrochloride]", "IC50": "< 100"},
      {"compound": "CCC(CC)N1CCCC(CCN2CCn3c(c(C4CCCCC4)c4ccc(C(=O)O)cc43)-c3ccc(Cl)cc32)C1", "note": "(centres unmarked) [Example 1-386, 3-chloro-13-cyclohexyl-5-{2-[1-(1-ethylpropyl)piperidin-3-yl]ethyl}-6,7-dihydro-5H-benzo[5,6][1,4]diazepino[7,1-a]indole-10-carboxylic acid dihydrochloride]", "IC50": "< 100"},
      {"compound": "CCOCC1CCCN(CCN2CCn3c(c(C4CCCCC4)c4ccc(C(=O)O)cc43)-c3ccccc32)C1", "note": "(centres unmarked) [Example 1-387, 13-cyclohexyl-5-[2-(3-ethoxymethylpiperidin-1-yl)ethyl]-6,7-dihydro-5H-benzo[5,6][1,4]diazepino[7,1-a]indole-10-carboxylic acid dihydrochloride]", "IC50": "< 100"},
      {"compound": "COCC1CCCN(CCN2CCn3c(c(C4CCCC4)c4ccc(C(=O)O)cc43)-c3ccc(Cl)cc32)C1", "note": "(centres unmarked) [Example 1-390, 3-chloro-13-cyclopentyl-5-[2-(3-methoxymethylpiperidin-1-yl)ethyl]-6,7-dihydro-5H-benzo[5,6][1,4]diazepino[7,1-a]indole-10-carboxylic acid]", "IC50": "< 100"},
      {"compound": "CCOCC1CCCN(CCN2CCn3c(c(C4CCCCC4)c4ccc(C(=O)O)cc43)-c3ccc(Cl)cc32)C1", "note": "(centres unmarked) [Example 1-391, 3-chloro-13-cyclohexyl-5-[2-(3-ethoxymethylpiperidin-1-yl)ethyl]-6,7-dihydro-5H-benzo[5,6][1,4]diazepino[7,1-a]indole-10-carboxylic acid dihydrochloride]", "IC50": "< 100"}
    ]},
    {"molecular_target": "T1, HCV polymerase", "assay": "biochemical", "parameters": "species or system HCV BK strain", "conditions": "25° C., 90 min; [5,6-3H]UTP incorporation into RNA; read-out: HCV polymerase inhibitory activity IC50", "outline": "as §1", "units": {"IC50": "nM"}, "values": [
      {"compound": "CC(C)COc1ccc2c(c1)N(CCN1CCCCC1)CCn1c-2c(C2CCCCC2)c2ccc(C(=O)O)cc21", "note": "[Example 1-373, 13-cyclohexyl-3-isobutoxy-5-[2-(piperidin-1-yl)ethyl]-6,7-dihydro-5H-benzo[5,6][1,4]diazepino[7,1-a]indole-10-carboxylic acid dihydrochloride]", "IC50": "< 100"},
      {"compound": "CCC1CCCN(CCN2CCn3c(c(C4CCCC4)c4ccc(C(=O)O)cc43)-c3ccc(Cl)cc32)C1", "note": "(centres unmarked) [Example 1-389, 3-chloro-13-cyclopentyl-5-[2-(3-ethylpiperidin-1-yl)ethyl]-6,7-dihydro-5H-benzo[5,6][1,4]diazepino[7,1-a]indole-10-carboxylic acid]", "IC50": "< 100"}
    ]}
  ]
}
